Laboratory results taken from publication PMC8308836, “Albumin Nanoparticle Formulation for Heart-Targeted Drug Delivery: In Vivo Assessment of Congestive Heart Failure” (Pharmaceuticals, 2021).
Where two headings read alike, the source gives them in different places.

What was measured:
[1] = Pharmacokinetics of milrinone in plasma after i.v. injection; assay type: in vivo, female Lewis rats; details: MRN dose 50 μg/kg, rat
Source text: Amrinone was used as an internal standard.

[2] = test system: rat model of congestive heart failure; assay: Serum safety and toxicity markers (liver and renal function); assay type: in vivo, female Lewis rats; details: CHF rats, i.v. injection; normal range 20–61 U/L
Description: Briefly, rats were anesthetized using 5% isoflurane, intubated, and mechanically ventilated at 80 breaths/minute. Via a left thoracotomy (through the fourth intercostal space), the LAD coronary artery was permanently ligated 2 mm from its origin with a 7/0 polypropylene suture (Ethicon Inc., Somerville, NJ, USA). […] About 48 h after ligation of the artery, injections were performed using a 27-G needle. Rats were randomized into five groups: Group 1 (n = 5) received an intravenous injection of 1 c.c. saline (Control). […] Group 4 (n = 5) received 250 μL intravenous injection of empty NPs in the same concentration as Group 1. […] Various endpoint measurements were taken as described in subsequent paragraphs. At 5 days post injection, all rats were killed by euthanasia.
Blood was collected via the jugular vein from the animals using a sterile 23 G/25 mm needle in the Microtainer® serum separator tubes (Becton Dickinson, Franklin Lakes, NJ, USA) for serum separation and in Plasma-EDTA tubes (Becton Dickinson, Franklin Lakes, NJ, USA) for plasma collection. The blood was allowed to clot at room temperature for 30 min and subsequently placed on ice until centrifugation. Serum was separated by low-speed centrifugation at 1500 rpm for 15 min at 4 °C and was frozen at −80 °C until analysis. […]

TNF-α = assay: Serum cytokine measurement by ELISA: TNF-α; assay type: in vivo, female Lewis rats; details: 1-week post treatment; i.v. injection, CHF rats, mean ± SD (n = 5)
Description: (§1) The cytokine analysis for levels of IL-6, IL-10, and tumor necrosis factor-alpha (TNF-α) was performed using commercially available ELISA kits (Abcam) according to the manufacturer’s instructions. Microtiter plates were precoated with a murine monoclonal antibody against the rat cytokine being measured. Standards of the analyte and serum samples were added in triplicate. The absorbance was read at 450 nm within 30 min of stopping the reaction and standard curves were plotted.

IL-6 = assay: Serum cytokine measurement by ELISA: IL-6; assay type: in vivo, female Lewis rats; details: 1-week post treatment; i.v. injection, CHF rats, mean ± SD (n = 5)
Description: as §1

IL-10 = assay: Serum cytokine measurement by ELISA: IL-10; assay type: in vivo, female Lewis rats; details: 1-week post treatment; i.v. injection, CHF rats, mean ± SD (n = 5)
Description: as §1

[3] = 2 h time point; i.v., MRN dose 50 μg/kg, rat, mean ± SD (n = 4)
Description: The animals were randomized into three groups in a blinded manner. Group I (n = 6) was intravenously injected with 1 c.c. saline. […] Group III (n = 12) was intravenously injected with 250 μL of MRN Lactate containing 50 μg/kg MRN. Blood was collected from the jugular vein at the following timepoints: 0, 5, 15, 30, 45, 60, 120, and 360 min. The animals were euthanized by isoflurane/CO2. Organ tissues (heart, lungs, liver, and kidneys) were collected, washed, rinsed, and snap-frozen in liquid nitrogen.

[4] = test system: rat model of congestive heart failure
Description: Briefly, rats were anesthetized using 5% isoflurane, intubated, and mechanically ventilated at 80 breaths/minute. […] About 48 h after ligation of the artery, injections were performed using a 27-G needle. […] Group 3 (n = 8) received 250 μL bolus intravenous injection of 50 μg/kg MRN Lactate [39, 40]. […] Various endpoint measurements were taken as described in subsequent paragraphs.
Echocardiographic examinations were performed under inhaled isoflurane anesthesia (2.5% in oxygen, 500–700 mL/min). Transthoracic echocardiography was performed for each rat as a baseline before the surgery, 48 h post surgery, 60 min post injection, 24 h post injection, 48 h post injection, and 1-week post injection. Echocardiograms were obtained with a commercially available system (Micromaxx P04224; SonoSite, Bothell, WA, USA), equipped with a linear probe 7–13 MHz 25 mm footprint turbo transducer (P06519.11; SonoSite). Briefly, LV end-diastolic diameters (LVEDD) and end-systolic diameters (LVESD) were measured with M-mode tracings between the anterior and posterior walls from the parasternal short-axis view just below the level of the papillary muscles of the mitral valve [13]. The time of end-diastole was defined as time of maximum diameter of the LV in one heart cycle. Accordingly, end-systole was defined as the minimum diameter. Following the American Society of Echocardiology leading-edge method, two images on average were obtained in each view and averaged over three consecutive cycles [41]. The left-ventricular end-diastolic volume (LVEDV) and left-ventricular end-systolic volume (LVESV) were measured using the Teichholz formula [13].

[5] = 24 h post treatment; i.v. injection 50 μg/kg, CHF rats, mean ± SD (n = 3)
Description: The surgery was performed in a blinded manner as previously mentioned [22, 38]. Briefly, rats were anesthetized using 5% isoflurane, intubated, and mechanically ventilated at 80 breaths/minute. Via a left thoracotomy (through the fourth intercostal space), the LAD coronary artery was permanently ligated 2 mm from its origin with a 7/0 polypropylene suture (Ethicon Inc., Somerville, NJ, USA). […] About 48 h after ligation of the artery, injections were performed using a 27-G needle. Rats were randomized into five groups: Group 1 (n = 5) received an intravenous injection of 1 c.c. saline (Control). […] Group 3 (n = 8) received 250 μL bolus intravenous injection of 50 μg/kg MRN Lactate [39, 40]. Group 4 (n = 5) received 250 μL intravenous injection of empty NPs in the same concentration as Group 1. […] Blood was collected 24 h post injection for milrinone quantification. […]
The milrinone in plasma samples was quantified using High Performance Liquid Chromatography (HPLC) LCMS-8060 (Shimadzu). […] All samples were reconstituted in 40 µL of mobile phase A and analyzed by LC-MS/MS. […] The gradient started at 95:5 A:B. Samples were quantified using the area under the curve (AUC) and a standard curve.

[6] = i.v. injection group, 48 h Post Ligation (before treatment)
[7] = i.v. injection group, Baseline—Pre-Ligation (before treatment)
[8] = i.v. injection, 50 μg/kg milrinone, 1-week Post Injection
[9] = i.v. injection, 50 μg/kg milrinone, 60 min Post Injection
[10] = i.v. injection, 50 μg/kg milrinone, 24 h Post Injection
[11] = i.v. injection, 50 μg/kg milrinone, 48 h Post Injection

CC(O)C(=O)O.Cc1[nH]c(=O)c(C#N)cc1-c1ccncc1 [MRN Lactate, milrinone lactate]
milrinone concentration in plasma ([1]; 0 min): 334.2 ng/mL | milrinone concentration in plasma ([1]; 5 min, mean ± SD (n = 4)): 203.5 ± 45.3 ng/mL | milrinone concentration in plasma ([1]; 15 min, mean ± SD (n = 4)): 75.4 ± 6.2 ng/mL | milrinone concentration in plasma ([1]; 30 min, mean ± SD (n = 4)): 72.6 ± 12.4 ng/mL | milrinone concentration in plasma ([1]; 45 min, mean ± SD (n = 4)): 22.9 ± 11.2 ng/mL | milrinone concentration in plasma ([1]; 120 min, mean ± SD (n = 4)): 4.1 ± 1.5 ng/mL | milrinone concentration in plasma ([1]; 360 min, mean ± SD (n = 4)): 1.6 ± 0.1 ng/mL | AUC0-t ([1]; non-compartmental): 104.3 ng·h/mL | AUC0-∞ ([1]; non-compartmental): 106.7 ng·h/mL | CL (clearance) ([1]; non-compartmental): 7.83 mL/min/kg | MRT (mean residence time) ([1]; non-compartmental): 49.1 min | Vss (apparent volume of distribution at steady state) ([1]; non-compartmental): 0.38 L/kg | Vz (apparent volume of distribution at elimination) ([1]; non-compartmental): 0.73 L/kg | t1/2 (half-life of plasma) ([1]; non-compartmental): 64.7 min | Serum ALT level [2]: within the normal range | Serum TNF-α level (TNF-α): 17.1 ± 2.8 pg/mL | Serum IL-6 level (IL-6): 39.3 ± 2.7 pg/mL | Serum IL-10 level (IL-10): 146.1 ± 24.7 pg/mL | MRN detected in heart [3]: 2.00 ± 1.01 ng/mL | MRN detected in kidneys [3]: 4.80 ± 0.6 ng/mL | MRN detected in liver [3]: 2.44 ± 0.23 ng/mL | Left Ventricular Ejection Fraction (LVEF) [4, 6]: 65.3 ± 2.3% | Left Ventricular Fractional Shortening (LVFS) [4, 6]: 34.3 ± 2.7% | Left Ventricular Ejection Fraction (LVEF) [4, 7]: 88.2 ± 1.8% | Left Ventricular Fractional Shortening (LVFS) [4, 7]: 52.6 ± 2.7% | Left Ventricular Ejection Fraction (LVEF) [4, 8]: 66.1 ± 4.2% | Left Ventricular Fractional Shortening (LVFS) [4, 8]: 30.8 ± 2.8% | Left Ventricular Ejection Fraction (LVEF) [4, 9]: 80.1 ± 3.3 % | Left Ventricular Fractional Shortening (LVFS) [4, 9]: 45.6 ± 3.2 % | Left Ventricular Ejection Fraction (LVEF) [4, 10]: 70.6 ± 3.6% | Left Ventricular Fractional Shortening (LVFS) [4, 10]: 33.6 ± 3.9% | Left Ventricular Ejection Fraction (LVEF) [4, 11]: 64.8 ± 4.3% | Left Ventricular Fractional Shortening (LVFS) [4, 11]: 30.2 ± 3.9% | milrinone detected in plasma [5]: 0.3 ± 0.1 ng/mL
